These results are taken from patent US20230089073A1 (Carmot Therapeutics, Inc., priority 2021, published 2023).

Structures are written as SMILES.

For the assay, the target named is T1, human GLP-1 receptor (Homo sapiens, UniProt P43220).
T1 construct: expressed in transfected cells
T1 sequence (P43220 24-463): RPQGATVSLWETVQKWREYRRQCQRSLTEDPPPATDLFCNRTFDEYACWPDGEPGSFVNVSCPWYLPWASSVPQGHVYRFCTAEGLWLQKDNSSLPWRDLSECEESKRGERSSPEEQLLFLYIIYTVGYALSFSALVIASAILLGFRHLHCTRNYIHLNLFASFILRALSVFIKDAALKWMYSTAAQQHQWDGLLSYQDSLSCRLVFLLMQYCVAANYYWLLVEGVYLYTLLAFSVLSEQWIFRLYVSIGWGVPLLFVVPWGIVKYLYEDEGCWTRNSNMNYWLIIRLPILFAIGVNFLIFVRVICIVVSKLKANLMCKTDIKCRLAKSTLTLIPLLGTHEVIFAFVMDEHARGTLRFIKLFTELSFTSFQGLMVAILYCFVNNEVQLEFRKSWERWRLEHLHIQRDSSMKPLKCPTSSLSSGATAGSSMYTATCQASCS
Nature of the assay: GLP-1R cAMP Assay. The class given is cell-based. Particulars: cAMP accumulation in CHO cells stably overexpressing the human GLP-1 receptor; 30 min treatment; HitHunter cAMP kit; read-out: EC50. Here is the method: cAMP accumulation was measured in Chinese hamster ovary (CHO) cells stably overexpressing the human GLP-1 receptor using the HitHunter cAMP Assay for Small Molecules Kit (Eurofins). Briefly, cells were grown in Ham's F12 Nutrient Mix with 10% FBS, and lifted with Cell Dissociation Buffer, Enzyme free, PBS based (ThermoFisher). […] The anti-cAMP antibody reagent was then added to cells at a 1:2 ratio and 5 μL of mixture was seeded in 384-well small volume white assay plates, at 10,000 cells/well. Cells were then treated with 50 nL compound using an ECHO 550 acoustic dispenser (Labcyte) in a 20-point dose response format in triplicate for 30 min. Cells were then lysed, and detection reagents added according to the manufacturer's protocol. After overnight incubation, luminescence was measured using a Perkin Elmer Envision plate reader. Dose response curves were analyzed using GraphPad Prism 9.0.
For orientation: EC50 means the concentration at which the effect is half-maximal. For the compound `Cc1ccc(Nc2cccc(C(=O)N3CCN(Cc4nc5ccc(C(=O)O)cc5n4C[C@@H]4CCO4)CC3)c2)c(Cl)c1` [Compound 50, 2-[(4-{3-[(2-chloro-4-methylphenyl)amino]benzoyl}piperazin-1-yl)methyl]-1-{[(2S)-oxetan-2-yl]methyl}-1H-1,3-benzodiazole-6-carboxylic acid], the concentration giving a half-maximal response (EC50) was more than 0.5 µM.

As to `Cc1ccc(N(C)c2cccc(C(=O)N3CCN(Cc4nc5ccc(C(=O)O)cc5n4C[C@@H]4CCO4)CC3)c2)c(Cl)c1` [Compound 51, 2-[(4-{3-[(2-chloro-4-methylphenyl)(methyl)amino]benzoyl}piperazin-1-yl)methyl]-1-{[(2S)-oxetan-2-yl]methyl}-1H-1,3-benzodiazole-6-carboxylic acid], the EC50 was less than 0.05 µM.

Regarding `CCN(c1cccc(C(=O)N2CCN(Cc3nc4ccc(C(=O)O)cc4n3C[C@@H]3CCO3)CC2)c1)c1ccc(C)cc1Cl` [Compound 52, 2-[(4-{3-[(2-chloro-4-methylphenyl)(ethyl)amino]benzoyl}piperazin-1-yl)methyl]-1-{[(2S)-oxetan-2-yl]methyl}-1H-1,3-benzodiazole-6-carboxylic acid], the EC50 is less than 0.05 µM.

For the compound `O=C(O)c1ccc2nc(CN3CCc4[nH]c5ccc(OC(F)(F)F)cc5c4C3)n(C[C@@H]3CCO3)c2c1` [Compound 53, 1-{[(2S)-oxetan-2-yl]methyl}-2-{[8-(trifluoromethoxy)-1H,2H,3H,4H,5H-pyrido[4,3-b]indol-2-yl]methyl}-1H-1,3-benzodiazole-6-carboxylic acid], the concentration giving a half-maximal response (EC50) is more than 0.5 µM.

As to `CCn1cncc1Cn1c(CN2CCN(C(=O)c3cccc(N(C)c4ccc(C)cc4Cl)c3)CC2)nc2ccc(C(=O)O)cc21` [Compound 54, 2-[(4-{3-[(2-chloro-4-methylphenyl)(methyl)amino]benzoyl}piperazin-1-yl)methyl]-1-[(1-ethyl-1H-imidazol-5-yl)methyl]-1H-1,3-benzodiazole-6-carboxylic acid], the EC50 fell in the range of 0.05 to 0.5 µM.

For `CCn1cncc1Cn1c(CN2CCN(C(=O)c3ccc(COc4ccc(C)cc4C)o3)CC2)nc2ccc(C(=O)O)cc21` [Compound 55, 2-[(4-{5-[(2,4-dimethylphenoxy)methyl]furan-2-carbonyl}piperazin-1-yl)methyl]-1-[(1-ethyl-1H-imidazol-5-yl)methyl]-1H-1,3-benzodiazole-6-carboxylic acid], the half-maximal effective concentration (EC50) was less than 0.05 µM.

As for `CCn1cncc1Cn1c(CN2CCN(C(=O)c3cccc(Cc4ccc(C)cc4Cl)c3)CC2)nc2ccc(C(=O)O)cc21` [Compound 56, 2-[(4-{3-[(2-chloro-4-methylphenyl)methyl]benzoyl}piperazin-1-yl)methyl]-1-[(1-ethyl-1H-imidazol-5-yl)methyl]-1H-1,3-benzodiazole-6-carboxylic acid], the EC50 was in the range of 0.05 to 0.5 µM.

For the compound `CCn1cncc1Cn1c(CN2CCN(C(=O)c3cccc(Nc4ccc(C)cc4Cl)c3)CC2)nc2ccc(C(=O)O)cc21` [Compound 58, 2-[(4-{3-[(2-chloro-4-methylphenyl)amino]benzoyl}piperazin-1-yl)methyl]-1-[(1-ethyl-1H-imidazol-5-yl)methyl]-1H-1,3-benzodiazole-6-carboxylic acid], the EC50 is more than 0.5 µM.

With `CCn1cncc1Cn1c(CN2CCN(Cc3ccc(COc4ccc(Cl)cc4Cl)o3)CC2)nc2ccc(C(=O)O)cc21` [Compound 63, 2-{[4-({5-[(2,4-dichlorophenoxy)methyl]furan-2-yl}methyl)piperazin-1-yl]methyl}-1-[(1-ethyl-1H-imidazol-5-yl)methyl]-1H-1,3-benzodiazole-6-carboxylic acid], the 50% effective concentration (EC50) was less than 0.05 µM.

Consider `Cc1ccc(OCc2cccc(C(=O)N3CCN(Cc4nc5ccc(C(=O)O)cc5n4C[C@@H]4CCO4)CC3)c2)c(Cl)c1` [Compound 64, 2-[(4-{3-[(2-chloro-4-methylphenoxy)methyl]benzoyl}piperazin-1-yl)methyl]-1-{[(2S)-oxetan-2-yl]methyl}-1H-1,3-benzodiazole-6-carboxylic acid], for which the EC50 is 0.05 to 0.5 µM.

Consider `CCn1cncc1Cn1c(CN2CCN(C(=O)c3cccc(COc4ccc(C)cc4Cl)c3)CC2)nc2ccc(C(=O)O)cc21` [Compound 65, 2-[(4-{3-[(2-chloro-4-methylphenoxy)methyl]benzoyl}piperazin-1-yl)methyl]-1-[(1-ethyl-1H-imidazol-5-yl)methyl]-1H-1,3-benzodiazole-6-carboxylic acid], for which the EC50 was 0.05 to 0.5 µM.

For the compound `N#Cc1ccc(COc2cccc(C(=O)N3CCN(Cc4nc5ccc(C(=O)O)cc5n4C[C@@H]4CCO4)CC3)c2)c(F)c1` [Compound 66, 2-[(4-{3-[(4-cyano-2-fluorophenyl)methoxy]benzoyl}piperazin-1-yl)methyl]-1-{[(2S)-oxetan-2-yl]methyl}-1H-1,3-benzodiazole-6-carboxylic acid], the EC50 was more than 0.5 µM.

For `CCn1cncc1Cn1c(CN2CCN(C(=O)c3cccc(OCc4ccc(C#N)cc4F)c3)CC2)nc2ccc(C(=O)O)cc21` [Compound 67, 2-[(4-{3-[(4-cyano-2-fluorophenyl)methoxy]benzoyl}piperazin-1-yl)methyl]-1-[(1-ethyl-1H-imidazol-5-yl)methyl]-1H-1,3-benzodiazole-6-carboxylic acid], the EC50 is more than 0.5 µM.

`N#Cc1ccc(OCc2cccc(C(=O)N3CCN(Cc4nc5ccc(C(=O)O)cc5n4C[C@@H]4CCO4)CC3)c2)c(F)c1` [Compound 68, 2-[(4-{3-[(4-cyano-2-fluorophenoxy)methyl]benzoyl}piperazin-1-yl)methyl]-1-{[(2S)-oxetan-2-yl]methyl}-1H-1,3-benzodiazole-6-carboxylic acid]: the half-maximal effective concentration (EC50) was more than 0.5 µM.

In the case of `CCn1cncc1Cn1c(CN2CCN(C(=O)c3cccc(COc4ccc(C#N)cc4F)c3)CC2)nc2ccc(C(=O)O)cc21` [Compound 69, 2-[(4-{3-[(4-cyano-2-fluorophenoxy)methyl]benzoyl}piperazin-1-yl)methyl]-1-[(1-ethyl-1H-imidazol-5-yl)methyl]-1H-1,3-benzodiazole-6-carboxylic acid], the EC50 was more than 0.5 µM.

As for `Cc1ccc(S(=O)(=O)Nc2cccc(C(=O)N3CCN(Cc4nc5ccc(C(=O)O)cc5n4C[C@@H]4CCO4)CC3)c2)cc1` [Compound 70, 2-({4-[3-(4-methylbenzenesulfonamido)benzoyl]piperazin-1-yl}methyl)-1-{[(2S)-oxetan-2-yl]methyl}-1H-1,3-benzodiazole-6-carboxylic acid], the concentration for a half-maximal effect (EC50) was more than 0.5 µM.

In the case of `CCn1cncc1Cn1c(CN2CCN(C(=O)c3ccc(COc4ccc(Cl)cc4Cl)s3)CC2)nc2ccc(C(=O)O)cc21` [Compound 71, 2-[(4-{5-[(2,4-dichlorophenoxy)methyl]thiophene-2-carbonyl}piperazin-1-yl)methyl]-1-[(1-ethyl-1H-imidazol-5-yl)methyl]-1H-1,3-benzodiazole-6-carboxylic acid], the EC50 was more than 0.5 µM.

As for `Cc1ccc(N(C)c2ccc(C)c(C(=O)N3CCN(Cc4nc5ccc(C(=O)O)cc5n4C[C@@H]4CCO4)CC3)c2)c(Cl)c1` [Compound 75, 2-[(4-{5-[(2-chloro-4-methylphenyl)(methyl)amino]-2-methylbenzoyl}piperazin-1-yl)methyl]-1-{[(2S)-oxetan-2-yl]methyl}-1H-1,3-benzodiazole-6-carboxylic acid], the EC50 was less than 0.05 µM.

`CCn1cncc1Cn1c(CN2CCN(C(=O)c3cc(N(C)c4ccc(C)cc4Cl)ccc3C)CC2)nc2ccc(C(=O)O)cc21` [Compound 76, 2-[(4-{5-[(2-chloro-4-methylphenyl)(methyl)amino]-2-methylbenzoyl}piperazin-1-yl)methyl]-1-[(1-ethyl-1H-imidazol-5-yl)methyl]-1H-1,3-benzodiazole-6-carboxylic acid]: the EC50 was less than 0.05 µM.

`CCn1cncc1Cn1c(CN2CCN(C(=O)c3cccc(CN(C)c4ccc(C)cc4Cl)c3)CC2)nc2ccc(C(=O)O)cc21` [Compound 77, 2-{[4-(3-{[(2-chloro-4-methylphenyl)(methyl)amino]methyl}benzoyl)piperazin-1-yl]methyl}-1-[(1-ethyl-1H-imidazol-5-yl)methyl]-1H-1,3-benzodiazole-6-carboxylic acid]: the EC50 is more than 0.5 µM.

Regarding `CCn1cncc1Cn1c(CN2CCN(C(=O)c3cccc(CNc4ccc(C)cc4Cl)c3)CC2)nc2ccc(C(=O)O)cc21` [Compound 79, 2-{[4-(3-{[(2-chloro-4-methylphenyl)amino]methyl}benzoyl)piperazin-1-yl]methyl}-1-[(1-ethyl-1H-imidazol-5-yl)methyl]-1H-1,3-benzodiazole-6-carboxylic acid], the concentration for a half-maximal effect (EC50) is more than 0.5 µM.

`Cc1ccc(NCc2cccc(C(=O)N3CCN(Cc4nc5ccc(C(=O)O)cc5n4C[C@@H]4CCO4)CC3)c2)c(Cl)c1` [Compound 80, 2-{[4-(3-{[(2-chloro-4-methylphenyl)amino]methyl}benzoyl)piperazin-1-yl]methyl}-1-{[(2S)-oxetan-2-yl]methyl}-1H-1,3-benzodiazole-6-carboxylic acid]: the EC50 is more than 0.5 µM.

Regarding `O=C(O)c1ccc2nc(CN3CCN(C(=O)c4ccc(COc5ccc(C6CC6)cc5Cl)o4)CC3)n(C[C@@H]3CCO3)c2c1` [Compound 81, 2-[(4-{5-[(2-chloro-4-cyclopropylphenoxy)methyl]furan-2-carbonyl}piperazin-1-yl)methyl]-1-{[(2S)-oxetan-2-yl]methyl}-1H-1,3-benzodiazole-6-carboxylic acid], the 50% effective concentration (EC50) was 0.05 to 0.5 µM.

In the case of `N#Cc1ccc(COc2cccc(C3CCN(C(=O)c4ccc(-c5nnn[nH]5)cn4)CC3)n2)c(F)c1` [Compound 82, 3-fluoro-4-{[(6-{1-[5-(1H-1,2,3,4-tetrazol-5-yl)pyridine-2-carbonyl]piperidin-4-yl}pyridin-2-yl)oxy]methyl}benzonitrile], the EC50 was more than 0.5 µM.
